According to ChEMBL document CHEMBL4477253, “Oxazolidinone-based allosteric modulators of mGluR5: Defining molecular switches to create a pharmacological tool box” (Bioorg Med Chem Lett, 2016):
pEC50, pIC50, pKi: −log10 of the molar value. Active and inactive are the calls of the source. No cut-off for these calls is given here.

Experiments:
[1] = molecular target: T1, Metabotropic glutamate receptor 5 (Homo sapiens, UniProt P41594); assay: Agonist activity at human mGluR5A transfected in HEK293 cells assessed as induction of calcium release by FLIPR assay; type: functional, cell-based
Target sequence in this assay (P41594 whole entry): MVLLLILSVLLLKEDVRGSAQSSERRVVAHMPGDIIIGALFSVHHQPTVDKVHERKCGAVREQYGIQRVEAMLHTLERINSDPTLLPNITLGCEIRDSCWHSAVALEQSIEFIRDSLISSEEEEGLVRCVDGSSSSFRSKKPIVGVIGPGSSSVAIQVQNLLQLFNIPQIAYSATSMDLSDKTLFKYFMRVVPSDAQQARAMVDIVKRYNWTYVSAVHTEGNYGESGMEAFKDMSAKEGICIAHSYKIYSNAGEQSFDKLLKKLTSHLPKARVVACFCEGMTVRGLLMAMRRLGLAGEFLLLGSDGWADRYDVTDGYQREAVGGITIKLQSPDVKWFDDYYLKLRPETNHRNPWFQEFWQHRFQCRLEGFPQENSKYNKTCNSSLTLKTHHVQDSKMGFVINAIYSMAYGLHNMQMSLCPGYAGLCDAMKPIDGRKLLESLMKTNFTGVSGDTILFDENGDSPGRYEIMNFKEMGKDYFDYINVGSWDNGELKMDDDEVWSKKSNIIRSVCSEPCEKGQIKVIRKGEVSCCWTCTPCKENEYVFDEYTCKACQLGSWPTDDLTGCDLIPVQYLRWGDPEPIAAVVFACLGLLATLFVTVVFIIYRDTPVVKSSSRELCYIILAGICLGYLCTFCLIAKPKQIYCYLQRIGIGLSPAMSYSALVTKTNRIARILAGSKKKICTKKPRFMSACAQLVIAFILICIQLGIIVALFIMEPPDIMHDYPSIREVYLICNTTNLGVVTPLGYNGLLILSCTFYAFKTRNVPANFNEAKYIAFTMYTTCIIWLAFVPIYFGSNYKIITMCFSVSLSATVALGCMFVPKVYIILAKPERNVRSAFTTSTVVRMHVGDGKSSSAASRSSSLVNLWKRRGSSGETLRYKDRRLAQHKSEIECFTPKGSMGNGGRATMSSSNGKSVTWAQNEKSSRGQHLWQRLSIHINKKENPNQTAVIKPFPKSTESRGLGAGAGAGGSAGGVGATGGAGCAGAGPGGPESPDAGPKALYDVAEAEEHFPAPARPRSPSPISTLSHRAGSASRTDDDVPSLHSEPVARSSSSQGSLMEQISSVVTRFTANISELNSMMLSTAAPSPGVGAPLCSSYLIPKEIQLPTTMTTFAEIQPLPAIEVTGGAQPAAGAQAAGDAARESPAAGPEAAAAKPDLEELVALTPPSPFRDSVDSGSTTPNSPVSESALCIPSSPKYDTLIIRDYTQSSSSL

[2] = molecular target: T1, Metabotropic glutamate receptor 5; assay: Positive allosteric modulation of human mGluR5A transfected in HEK293 cells assessed as potentiation of L-glutamate-induced calcium release incubated for 10 mins by FLIPR assay; type: functional, cell-based
Target sequence in this assay (P41594 whole entry): as above

[3] = Fraction unbound in rat serum; type: ADME, cell-free
[4] = Fraction unbound in human serum; type: ADME, cell-free
[5] = molecular target: T1, Metabotropic glutamate receptor 5; assay: Agonist activity at human mGluR5A transfected in HEK293 cells assessed as induction of calcium release up to 3 uM by FLIPR assay; type: functional, cell-based
Target sequence in this assay (P41594 21-1212 limits assumed): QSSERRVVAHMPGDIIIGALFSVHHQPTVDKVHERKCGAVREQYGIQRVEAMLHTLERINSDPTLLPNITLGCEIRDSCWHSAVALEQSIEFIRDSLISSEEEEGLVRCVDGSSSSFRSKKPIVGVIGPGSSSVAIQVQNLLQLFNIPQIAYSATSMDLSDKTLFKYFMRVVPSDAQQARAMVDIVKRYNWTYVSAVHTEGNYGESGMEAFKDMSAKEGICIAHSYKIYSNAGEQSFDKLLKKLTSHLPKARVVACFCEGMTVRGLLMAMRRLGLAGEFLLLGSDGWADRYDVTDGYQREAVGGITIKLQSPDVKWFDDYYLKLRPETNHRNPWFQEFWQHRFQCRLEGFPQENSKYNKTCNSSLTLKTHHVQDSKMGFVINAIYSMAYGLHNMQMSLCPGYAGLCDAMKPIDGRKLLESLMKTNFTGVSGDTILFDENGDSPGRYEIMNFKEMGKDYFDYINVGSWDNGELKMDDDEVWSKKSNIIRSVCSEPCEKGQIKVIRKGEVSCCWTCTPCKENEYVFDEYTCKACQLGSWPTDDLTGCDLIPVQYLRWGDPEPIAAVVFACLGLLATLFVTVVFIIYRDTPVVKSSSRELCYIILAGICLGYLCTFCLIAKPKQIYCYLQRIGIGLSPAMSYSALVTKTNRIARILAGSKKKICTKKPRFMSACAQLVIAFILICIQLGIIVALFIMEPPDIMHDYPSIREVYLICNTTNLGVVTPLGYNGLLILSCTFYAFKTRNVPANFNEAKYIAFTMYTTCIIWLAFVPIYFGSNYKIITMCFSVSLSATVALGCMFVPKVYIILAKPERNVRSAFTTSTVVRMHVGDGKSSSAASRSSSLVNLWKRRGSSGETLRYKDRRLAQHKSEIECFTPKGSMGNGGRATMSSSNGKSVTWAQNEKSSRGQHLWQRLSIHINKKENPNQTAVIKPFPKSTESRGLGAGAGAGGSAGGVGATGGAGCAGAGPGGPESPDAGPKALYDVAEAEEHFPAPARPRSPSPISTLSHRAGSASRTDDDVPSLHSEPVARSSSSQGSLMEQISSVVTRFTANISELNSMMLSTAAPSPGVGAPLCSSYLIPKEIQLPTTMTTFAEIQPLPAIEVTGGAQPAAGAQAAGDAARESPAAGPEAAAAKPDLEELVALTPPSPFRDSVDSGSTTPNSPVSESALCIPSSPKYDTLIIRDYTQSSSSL

[6] = Fraction unbound in mouse serum; type: ADME, cell-free
[7] = molecular target: T1, Metabotropic glutamate receptor 5; assay: Displacement of [3H]-MPEPy from human mGluR5A transfected in HEK293 cell membranes after 60 mins by microbeta liquid scintillation counting analysis
Target sequence in this assay (P41594 whole entry): as the sequence (P41594 whole entry) above

[8] = molecular target: T1, Metabotropic glutamate receptor 5; assay: Antagonist activity against human mGluR5A transfected in HEK293 cells assessed as inhibition of L-glutamate-induced calcium release up to 3 uM after 10 mins by FLIPR assay; type: functional, cell-based
Target sequence in this assay (P41594 21-1212 limits assumed): as the sequence (P41594 21-1212 limits assumed) above

[9] = Toxicity in C57BL/6 mouse assessed as induction of convulsions at 30 mg/kg, ip during 3 hrs study; type: organism-based; conditions: in vivo
[10] = Metabolic stability in human liver microsomes assessed as compound remaining after 10 mins; type: ADME, Microsome; conditions: read-out: Stability
[11] = Metabolic stability in rat liver microsomes assessed as compound remaining after 10 mins; type: ADME, Microsome; conditions: read-out: Stability
[12] = Metabolic stability in mouse liver microsomes assessed as compound remaining after 10 mins; type: ADME, Microsome; conditions: read-out: Stability
[13] = Drug uptake in C57BL/6 mouse brain at 10 mg/kg, sc measured after 60 mins; type: ADME, organism-based; conditions: read-out: Drug uptake
[14] = Drug uptake in C57BL/6 mouse plasma at 1 mg/kg, sc measured after 60 mins; type: ADME, organism-based
Mus musculus [15] = assay: Cognitive enhancing effect in sc dosed C57BL/6 mouse assessed as time spent on exploring novel objects administered 1 hr before acquisition session followed by acquisition session for 15 mins by novel object recognition test; type: functional; conditions: C57BL/6, sc, read-out: MED
[16] = Ratio of drug uptake in C57BL/6 mouse brain to plasma at 1 mg/kg, sc measured after 60 mins; type: ADME, organism-based; conditions: read-out: BPR
[17] = Drug uptake in C57BL/6 mouse brain at 3 mg/kg, sc measured after 60 mins; type: ADME, organism-based; conditions: read-out: Drug uptake
[18] = Ratio of drug uptake in C57BL/6 mouse brain to plasma at 10 mg/kg, sc measured after 60 mins; type: ADME, organism-based; conditions: read-out: BPR
[19] = Ratio of drug uptake in C57BL/6 mouse brain to plasma at 3 mg/kg, sc measured after 60 mins; type: ADME, organism-based; conditions: read-out: BPR
[20] = Drug uptake in C57BL/6 mouse plasma at 3 mg/kg, sc measured after 60 mins; type: ADME, organism-based
[21] = Drug uptake in C57BL/6 mouse brain at 1 mg/kg, sc measured after 60 mins; type: ADME, organism-based; conditions: read-out: Drug uptake
[22] = Drug uptake in C57BL/6 mouse plasma at 10 mg/kg, sc measured after 60 mins; type: ADME, organism-based
[23] = molecular target: T1, Metabotropic glutamate receptor 5; assay: Displacement of [3H]-MPEP from human mGluR5A transfected in HEK293 cells after 60 mins by microbeta liquid scintillation counting analysis; type: cell-based
Target sequence in this assay (P41594 whole entry): as the sequence (P41594 whole entry) above

Mus musculus [24] = assay: Ex vivo receptor occupancy at mGluR5A in C57BL/6 mouse at 10 and 30 mg/kg; type: functional, organism-based
[25] = Toxicity in C57BL/6 mouse assessed as induction of convulsions at 3 mg/kg, ip during 3 hrs study; type: organism-based; conditions: in vivo
[26] = Toxicity in C57BL/6 mouse assessed as induction of convulsions at 1 mg/kg, ip during 3 hrs study; type: organism-based; conditions: in vivo
[27] = Toxicity in C57BL/6 mouse assessed as induction of convulsions at 10 mg/kg, ip during 3 hrs study; type: organism-based; conditions: in vivo
[28] = molecular target: T1, Metabotropic glutamate receptor 5; assay: Negative allosteric modulation of human mGluR5A transfected in HEK293 cells assessed as inhibition of L-glutamate-induced calcium release after 10 mins by FLIPR assay; type: functional, cell-based
Target sequence in this assay (P41594 whole entry): as above

[29] = Toxicity in C57BL/6 mouse assessed as induction of convulsions at 10 mg/kg, ip coadministered with (4R,5R)-5-phenyl-4-(4-(phenylethynyl)pyridin-2-yl)oxazolidin-2-one during 3 hrs study; type: organism-based; conditions: in vivo

| SMILES | pEC50 [1] | pEC50 [2] | fraction unbound [4] | fraction unbound [6] | pKi [7] | remaining at 10 min [10] | remaining at 10 min [11] | also measured |
| --- | --- | --- | --- | --- | --- | --- | --- | --- |
| O=C1N[C@H](c2cncc(C#Cc3ccccc3)c2)[C@@H](c2ccccc2Cl)O1 [BMS-984923] | < 5.52 | < 5.52 | – | – | – | – | – | – |
| O=C1N[C@H](c2ccnc(C#Cc3ccccc3)c2)[C@@H](c2ccccc2)O1 | – | 8.82 | 0.005 | 0.021 | 8.68 | – | – | fraction unbound [3]: 0.012; Activity [5]: inactive; inhibition [8]: inactive |
| O=C1N[C@H](c2cccc(C#Cc3ccccc3)n2)[C@@H](c2ccccc2)O1 | – | 8.03 | 0.009 | 0.011 | 7.36 | – | – | fraction unbound [3]: 0.009; Activity [5]: inactive; Activity [9]: Non-Toxic; inhibition [8]: inactive |
| O=C1N[C@H](c2cncc(C#Cc3ccccc3)c2)[C@@H](c2cc(F)cc(F)c2)O1 | < 5.52 | 8.26 | – | – | 8.85 | – | – | – |
| O=C1N[C@H](c2cncc(C#Cc3cccnc3)c2)[C@@H](c2ccc(F)cc2)O1 | 6.56 | 8.48 | 0.082 | 0.11 | 7.49 | 76% | 85% | remaining at 10 min [12]: 87% |
| O=C1N[C@H](c2cncc(C#Cc3ccncc3)c2)[C@@H](c2ccc(F)cc2)O1 | < 5.52 | 7.85 | 0.14 | 0.1 | 7.80 | 70% | 65% | remaining at 10 min [12]: 69% |
| O=C1N[C@H](c2cncc(C#Cc3ccccc3)c2)[C@@H](c2cc(F)ccc2F)O1 | – | – | – | – | – | – | – | Activity [9]: Non-Toxic; Activity (Mus musculus [24]): Active |
| O=C1N[C@H](c2cncc(C#Cc3ccccc3)c2)[C@@H](c2cccc(F)c2)O1 | – | – | – | – | – | – | – | Activity [25]: Toxic |
| O=C1N[C@H](c2cncc(C#Cc3ccccc3)c2)[C@@H](c2cccc(F)c2F)O1 | < 5.52 | 8.38 | – | – | 8.74 | – | – | – |
| O=C1N[C@H](c2cncc(C#Cc3ccccc3)c2)[C@@H](c2c(F)cccc2F)O1 | < 5.52 | < 5.52 | – | – | 8.57 | – | – | pIC50 [28]: 7.57 |
| O=C1N[C@H](c2cc(C#Cc3ccccc3)ccn2)[C@@H](c2ccccc2)O1 | – | – | 0.006 | 0.01 | – | – | – | fraction unbound [3]: 0.009; Activity [5]: inactive; inhibition [8]: inactive |
| O=C1N[C@H](c2cncc(C#Cc3ccccc3)c2)[C@@H](c2ccc(Cl)cc2)O1 | 6.48 | 9.22 | – | – | 8.66 | – | – | – |
| O=C1N[C@H](c2cncc(C#Cc3ccccc3)c2)[C@@H](c2ccc(F)cc2F)O1 | < 5.52 | 8.92 | – | – | 8.85 | – | – | Activity [25]: Toxic |

Second part, led by results:

| pEC50 [1] | pEC50 [2] | fraction unbound [4] | fraction unbound [6] | pKi [7] | remaining at 10 min [10] | remaining at 10 min [11] | SMILES | also measured |
| --- | --- | --- | --- | --- | --- | --- | --- | --- |
| < 5.52 | 8.00 | 0.076 | 0.13 | 7.85 | 100% | 100% | O=C1N[C@H](c2cncc(C#Cc3ncccc3F)c2)[C@@H](c2ccc(F)cc2)O1 | concentration at 1 h [13]: 542 nM; concentration at 1 h [14]: 375 nM; minimal effective dose (Mus musculus [15]): 10 mg/kg; Kp at 1 h [16]: 0.15; concentration at 1 h [17]: 182 nM; Kp at 1 h [18]: 0.1 to 0.11; Kp at 1 h [19]: 0.14; concentration at 1 h [20]: 1430 nM; concentration at 1 h [21]: 56 nM; concentration at 1 h [22]: 5250 nM; Activity [9]: Non-Toxic; remaining at 10 min [12]: 100% |
| – | 7.42 | < 0.001 | 0.001 | – | – | – | O=C1N[C@H](c2cccc(C#Cc3ccccc3)c2)[C@@H](c2ccccc2)O1 | fraction unbound [3]: 0.001; pKi [23]: 8.05; Activity [5]: inactive; inhibition [8]: inactive |
| 7.30 | 9.70 | – | – | 8.55 | – | – | O=C1N[C@H](c2cncc(C#Cc3ccccc3)c2)[C@@H](c2ccc(F)c(F)c2)O1 | – |
| 6.30 | 9.40 | 0.004 | 0.009 | 8.77 | 81% | 92% | O=C1N[C@H](c2cncc(C#Cc3ccccc3)c2)[C@@H](c2ccc(F)cc2)O1 | Activity [26]: Toxic; remaining at 10 min [12]: 80% |
| < 5.52 | 9.05 | – | – | 8.74 | – | – | O=C1N[C@H](c2cncc(C#Cc3ccccc3)c2)[C@@H](c2cccc(Cl)c2)O1 | – |
| < 5.52 | 8.32 | 0.034 | 0.11 | 7.82 | 92% | 100% | O=C1N[C@H](c2cncc(C#Cc3ccnc(F)c3)c2)[C@@H](c2ccc(F)cc2)O1 | Activity [27]: Toxic |
| < 5.52 | 8.82 | – | – | 8.72 | – | – | O=C1N[C@H](c2cncc(C#Cc3ccccc3)c2)[C@@H](c2ccccc2F)O1 | – |
| 6.50 | – | 0.035 | – | – | 97% | 85% | O=C1N[C@H](c2cncc(C#Cc3cncc(F)c3)c2)[C@@H](c2ccc(F)cc2)O1 | Activity [27]: Toxic; remaining at 10 min [12]: 77%; Activity [29]: Non-Toxic |
| < 5.52 | 7.60 | 0.064 | 0.069 | 7.64 | 97% | 100% | O=C1N[C@H](c2cncc(C#Cc3ccccn3)c2)[C@@H](c2ccc(F)cc2)O1 | remaining at 10 min [12]: 89% |
| < 5.52 | 9.15 | 0.008 | 0.047 | 8.85 | – | – | O=C1N[C@H](c2cncc(C#Cc3ccccc3)c2)[C@@H](c2ccccc2)O1 | fraction unbound [3]: 0.007; Activity [5]: inactive; Activity [9]: Non-Toxic; inhibition [8]: inactive |
